# Legend:
# [1] = target: Beta-2 adrenergic receptor (Homo sapiens, UniProt P07550); assay: Binding affinity to adrenergic beta-2 receptor
# D(1A) dopamine receptor = D(1A) dopamine receptor (Homo sapiens, UniProt P21728); assay: Binding affinity to dopamine receptor D1
# [2] = target: T1, Adrenergic receptor alpha-2 (Homo sapiens, UniProt P08913+P18825+P18089); assay: Binding affinity to adrenergic alpha-2 receptor; format: protein assay
# T1 sequence (P08913 whole entry): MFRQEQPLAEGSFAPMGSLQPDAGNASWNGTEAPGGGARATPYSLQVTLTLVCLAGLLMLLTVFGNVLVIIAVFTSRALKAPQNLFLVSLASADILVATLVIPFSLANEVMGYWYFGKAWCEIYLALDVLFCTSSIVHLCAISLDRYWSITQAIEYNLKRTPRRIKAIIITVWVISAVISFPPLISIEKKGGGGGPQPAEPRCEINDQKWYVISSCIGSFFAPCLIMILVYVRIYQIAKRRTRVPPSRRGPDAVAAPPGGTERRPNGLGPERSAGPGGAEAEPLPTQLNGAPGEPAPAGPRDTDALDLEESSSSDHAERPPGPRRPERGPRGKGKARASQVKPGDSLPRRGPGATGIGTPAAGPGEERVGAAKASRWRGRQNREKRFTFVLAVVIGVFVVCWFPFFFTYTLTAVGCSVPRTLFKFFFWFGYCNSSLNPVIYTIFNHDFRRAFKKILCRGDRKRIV
# T1 sequence (P18825 whole entry): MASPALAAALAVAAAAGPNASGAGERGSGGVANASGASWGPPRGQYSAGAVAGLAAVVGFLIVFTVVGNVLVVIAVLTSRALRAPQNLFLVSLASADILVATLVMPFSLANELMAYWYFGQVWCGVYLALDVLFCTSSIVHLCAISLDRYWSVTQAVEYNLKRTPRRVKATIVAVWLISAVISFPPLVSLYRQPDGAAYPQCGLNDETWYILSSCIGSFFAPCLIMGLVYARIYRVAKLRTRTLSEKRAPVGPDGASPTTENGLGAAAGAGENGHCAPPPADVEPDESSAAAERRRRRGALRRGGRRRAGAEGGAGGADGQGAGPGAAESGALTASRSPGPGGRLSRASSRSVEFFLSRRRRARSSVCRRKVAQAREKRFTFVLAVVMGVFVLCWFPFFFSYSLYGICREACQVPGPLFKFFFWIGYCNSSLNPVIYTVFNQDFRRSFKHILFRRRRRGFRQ
# T1 sequence (P18089 whole entry): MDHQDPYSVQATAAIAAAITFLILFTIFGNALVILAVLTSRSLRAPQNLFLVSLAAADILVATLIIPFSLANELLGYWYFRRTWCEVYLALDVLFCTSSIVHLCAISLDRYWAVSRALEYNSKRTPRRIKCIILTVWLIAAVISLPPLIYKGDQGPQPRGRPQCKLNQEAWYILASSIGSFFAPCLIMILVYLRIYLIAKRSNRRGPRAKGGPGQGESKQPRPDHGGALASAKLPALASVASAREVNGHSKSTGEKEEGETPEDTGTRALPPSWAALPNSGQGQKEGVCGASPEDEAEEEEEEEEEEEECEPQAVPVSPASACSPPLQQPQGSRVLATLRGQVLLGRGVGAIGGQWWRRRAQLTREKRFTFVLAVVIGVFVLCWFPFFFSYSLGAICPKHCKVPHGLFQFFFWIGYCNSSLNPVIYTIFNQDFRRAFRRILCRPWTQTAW
# D(2) dopamine receptor = D(2) dopamine receptor (Homo sapiens, UniProt P14416); assay: Binding affinity to dopamine receptor D2
# Chain of D(2) dopamine receptor (P14416 whole entry): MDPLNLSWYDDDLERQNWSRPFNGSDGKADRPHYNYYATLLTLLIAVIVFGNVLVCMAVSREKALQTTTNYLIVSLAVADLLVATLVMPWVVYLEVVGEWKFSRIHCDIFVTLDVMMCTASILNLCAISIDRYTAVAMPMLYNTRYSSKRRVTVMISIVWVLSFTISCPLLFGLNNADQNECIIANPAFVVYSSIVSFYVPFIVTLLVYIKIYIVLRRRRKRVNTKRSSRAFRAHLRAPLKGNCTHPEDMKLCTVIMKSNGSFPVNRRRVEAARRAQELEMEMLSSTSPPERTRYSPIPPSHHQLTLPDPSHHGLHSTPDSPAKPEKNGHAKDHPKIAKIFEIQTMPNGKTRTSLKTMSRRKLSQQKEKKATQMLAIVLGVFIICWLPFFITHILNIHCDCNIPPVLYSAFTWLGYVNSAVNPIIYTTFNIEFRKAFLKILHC
# [3] = target: Beta-1 adrenergic receptor (Homo sapiens, UniProt P08588); assay: Binding affinity to adrenergic beta-1 receptor
# Chain of Beta-1 adrenergic receptor (P08588 whole entry): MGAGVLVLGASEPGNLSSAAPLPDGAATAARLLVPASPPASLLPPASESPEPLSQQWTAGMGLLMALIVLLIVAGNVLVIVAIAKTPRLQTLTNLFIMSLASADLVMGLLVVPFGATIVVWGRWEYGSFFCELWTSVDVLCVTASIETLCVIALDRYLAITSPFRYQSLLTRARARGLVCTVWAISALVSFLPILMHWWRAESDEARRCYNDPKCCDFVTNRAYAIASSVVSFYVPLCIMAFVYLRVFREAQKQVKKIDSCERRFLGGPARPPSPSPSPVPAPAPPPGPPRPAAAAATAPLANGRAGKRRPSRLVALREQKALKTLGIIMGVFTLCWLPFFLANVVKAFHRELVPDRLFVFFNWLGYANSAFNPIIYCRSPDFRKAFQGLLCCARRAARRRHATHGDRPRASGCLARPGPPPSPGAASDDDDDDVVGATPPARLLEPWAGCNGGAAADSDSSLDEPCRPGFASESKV
# [4] = Binding affinity to 5HT1 receptor
# [5] = target: Serotonin 2 (5-HT2) receptor (Homo sapiens, UniProt P41595+P28223+P28335); assay: Binding affinity to 5HT2 receptor; format: protein assay
# [6] = target: 5-hydroxytryptamine receptor 4 (Cavia porcellus, UniProt O70528); assay: Displacement of [3H]GR-113808 from 5HT4 receptor in guinea pig striatum
# Chain of 5-hydroxytryptamine receptor 4 (O70528 whole entry): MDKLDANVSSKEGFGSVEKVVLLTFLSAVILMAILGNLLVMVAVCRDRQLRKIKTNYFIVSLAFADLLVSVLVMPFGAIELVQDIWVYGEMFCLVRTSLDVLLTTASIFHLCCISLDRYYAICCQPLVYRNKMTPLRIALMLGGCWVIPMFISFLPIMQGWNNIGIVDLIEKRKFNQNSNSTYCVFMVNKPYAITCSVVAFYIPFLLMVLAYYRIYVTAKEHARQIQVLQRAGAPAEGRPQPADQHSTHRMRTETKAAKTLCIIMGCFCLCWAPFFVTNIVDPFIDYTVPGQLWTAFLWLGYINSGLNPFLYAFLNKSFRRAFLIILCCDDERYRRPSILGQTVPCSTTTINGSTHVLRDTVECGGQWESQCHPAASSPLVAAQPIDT
# Chain of D(1A) dopamine receptor (P21728 whole entry): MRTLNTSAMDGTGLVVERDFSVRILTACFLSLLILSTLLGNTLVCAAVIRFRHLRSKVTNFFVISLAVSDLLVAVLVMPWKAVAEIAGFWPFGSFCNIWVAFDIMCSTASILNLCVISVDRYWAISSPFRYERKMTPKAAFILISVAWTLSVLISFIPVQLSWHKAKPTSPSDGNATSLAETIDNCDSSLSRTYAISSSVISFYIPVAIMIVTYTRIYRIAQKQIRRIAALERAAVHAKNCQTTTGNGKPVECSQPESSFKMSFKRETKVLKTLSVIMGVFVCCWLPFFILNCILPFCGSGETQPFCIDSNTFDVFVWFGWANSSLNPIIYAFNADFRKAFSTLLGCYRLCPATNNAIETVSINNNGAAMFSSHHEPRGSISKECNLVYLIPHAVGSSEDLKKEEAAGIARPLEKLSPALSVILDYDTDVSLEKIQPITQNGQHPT
# Chain of Beta-2 adrenergic receptor (P07550 whole entry): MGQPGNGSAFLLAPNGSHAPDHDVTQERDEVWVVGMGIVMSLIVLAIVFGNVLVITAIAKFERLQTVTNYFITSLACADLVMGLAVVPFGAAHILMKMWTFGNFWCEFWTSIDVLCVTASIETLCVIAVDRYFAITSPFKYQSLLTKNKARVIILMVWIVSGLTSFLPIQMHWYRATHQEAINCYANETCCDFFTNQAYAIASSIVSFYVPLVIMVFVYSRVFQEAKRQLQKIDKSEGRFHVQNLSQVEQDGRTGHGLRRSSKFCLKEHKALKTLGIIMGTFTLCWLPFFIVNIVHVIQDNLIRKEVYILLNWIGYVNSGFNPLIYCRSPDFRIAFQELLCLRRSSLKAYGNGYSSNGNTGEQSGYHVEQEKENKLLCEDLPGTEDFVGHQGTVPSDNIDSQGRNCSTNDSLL
smiles,measurement,setting,value
"O=C(OC[C@@H]1CCN2CCC[C@@H]12)c1[nH]nc2ccccc12 (single isomer, unassigned)",IC50,[1],> 10 µM
same,IC50,D(1A) dopamine receptor,> 10 µM
same,IC50,[2],> 10 µM
same,IC50,D(2) dopamine receptor,> 10 µM
same,IC50,[3],> 10 µM
same,IC50,[4],> 10 µM
same,IC50,[5],> 10 µM
same,Ki,[6],0.8 nM
COc1cc(N)c(Cl)cc1C(=O)N[C@@H]1C2CC3CN(C2)CC31 (stereo partly drawn),IC50,[1],> 10 µM
same,IC50,D(1A) dopamine receptor,> 10 µM
same,IC50,[2],> 10 µM
same,IC50,D(2) dopamine receptor,> 10 µM
same,IC50,[3],> 10 µM
same,IC50,[4],> 10 µM
same,IC50,[5],> 10 µM
same,Ki,[6],29 nM
"Cn1nc(C(=O)OC[C@@H]2CCN3CCC[C@@H]23)c2ccccc21 (single isomer, unassigned)",IC50,[1],> 10 µM
same,IC50,D(1A) dopamine receptor,> 10 µM
same,IC50,[2],> 10 µM
same,IC50,D(2) dopamine receptor,> 10 µM
same,IC50,[3],> 10 µM
same,IC50,[4],> 10 µM
same,IC50,[5],> 10 µM
same,Ki,[6],0.4 nM
O=C(OC[C@@H]1CCN2CCC[C@@H]12)c1c[nH]c2ccccc12,IC50,[1],> 10 µM
same,IC50,D(1A) dopamine receptor,> 10 µM
same,IC50,[2],> 10 µM
same,IC50,D(2) dopamine receptor,> 10 µM
same,IC50,[3],> 10 µM
same,IC50,[4],> 10 µM
same,IC50,[5],> 10 µM
same,Ki,[6],0.183 nM
COc1cc(N)c(Cl)cc1C(=O)NC[C@@H]1CCN2CCC[C@@H]12,IC50,[1],> 10 µM
same,IC50,D(1A) dopamine receptor,> 10 µM
same,IC50,[2],> 10 µM
same,IC50,D(2) dopamine receptor,> 10 µM
same,IC50,[3],> 10 µM
same,IC50,[4],> 10 µM
same,IC50,[5],> 10 µM
same,Ki,[6],5.2 nM
O=C(NC[C@@H]1CCN2CCC[C@@H]12)c1cc(Cl)cn2ccnc12,IC50,[1],> 10 µM
same,IC50,D(1A) dopamine receptor,> 10 µM
same,IC50,[2],> 10 µM
same,IC50,D(2) dopamine receptor,> 10 µM
same,IC50,[3],> 10 µM
same,IC50,[4],> 10 µM
same,IC50,[5],> 10 µM
same,Ki,[6],1.4 nM
